Here are results for six compounds from patent publication US9359392B2, “Dendrimer scaffolds for pharmaceutical use” (Victoria Link Limited, priority 2012, dated 2016).

The subject of one data set is sheep spleen cells. Description: Assessment of potential cytotoxicity: percentage cell viability versus a PBS control. Type of data set: cell-based. Particulars: 36.5° C. How it is done: The potential cytotoxic properties of compounds 12, 13 and 14 were evaluated by measuring percentage cell viability of sheep spleen cells versus a PBS control after 24 h and 48 h exposure to 0.01, 0.1 and 1 mg/mL solutions of each compound in PBS at 36.5° C.

Data set [1] is described as follows: Stability under forcing degradation conditions with HPLC monitoring. Type of data set: physicochemical. The text has this: Assessment of Potential Cytotoxicity
Data set [2] is described as follows: Water relaxivity measurements (T1, inversion recovery NMR). Type of data set: physicochemical. Particulars: 500 MHz (11.75 T), 30° C., aqueous solution. How it is done:
Water relaxivity measurements provide an indication of whether a material will increase contrast in MRI imaging techniques. Water relaxivity measurements were performed in aqueous solutions. T1 measurements were made on a 500 MHz (11.75 T) Bruker NMR using a standard inversion recovery sequence (180-t-90) at 30° C. The relaxivity of water in D2O in the presence of (meglumine)2[Gd(III)(DPTA)(OH2)]

The conditions of data set [3]: comparator salt, stated without test; cited from earlier work.

In the case of “2-Aminoacetic acid(N,N):{6,9-diaza-3-oxa-7-oxononanyl(9,9)}2x,4x,8x^G1,G2,G3:(6-aza-3,11-dioxa-7,10-dioxoundecanyl)16-cascadane [compound 13]”, the Cell viability with sheep spleen cells (0.01 mg/mL in PBS, 24 h) worked out at 107%; with sheep spleen cells (0.01 mg/mL in PBS, 48 h), 97%; with sheep spleen cells (0.1 mg/mL in PBS, 24 h) it was 104%; in the data set on sheep spleen cells (0.1 mg/mL in PBS, 48 h) it was 98%; with sheep spleen cells (1 mg/mL in PBS, 24 h), 106%; with sheep spleen cells (1 mg/mL in PBS, 48 h), 100%. Moreover, the degradation was 63% in data set [1] (24 h in 1% H2O2 at 20° C.); 12% in data set [1] (24 h in 1 M HCl at 20° C.); 30% in data set [1] (24 h in 1 M NaOH at 20° C.); “No observable degradation” in data set [1] (24 h neat at 40° C.); 41% in data set [1] (24 h neat at 80° C.).

As to “2-Aminoacetic acid(N,N):{6,9-diaza-3-oxa-7-oxononanyl(9,9)}2x,4x,8x^G1,G2,G3:(6-aza-3-oxa-7-oxooctanyl)16-cascadane [compound 14]”, the Cell viability in the data set on sheep spleen cells (0.01 mg/mL in PBS, 24 h) is recorded as 104%; in the data set with sheep spleen cells (0.01 mg/mL in PBS, 48 h), 99%; with sheep spleen cells (0.1 mg/mL in PBS, 24 h), 104%; with sheep spleen cells (0.1 mg/mL in PBS, 48 h), 97%; in the data set with sheep spleen cells (1 mg/mL in PBS, 24 h), 97%; with sheep spleen cells (1 mg/mL in PBS, 48 h), 90%.

Consider “2-Aminoacetic acid(N,N):{6,9-diaza-3-oxa-7-oxononanyl(9,9)}2x,4x,8x^G1,G2,G36:(5-amino-3-oxapentanyl)16-cascadane [compound 12]”, for which the Cell viability with sheep spleen cells (0.01 mg/mL in PBS, 24 h) is 94%; in the data set with sheep spleen cells (0.01 mg/mL in PBS, 48 h), 84%; in the data set with sheep spleen cells (0.1 mg/mL in PBS, 24 h), 92%; with sheep spleen cells (0.1 mg/mL in PBS, 48 h) it was 85%; in the data set with sheep spleen cells (1 mg/mL in PBS, 24 h), 99%; with sheep spleen cells (1 mg/mL in PBS, 48 h), 87%.

`CNC[C@H](O)[C@@H](O)[C@H](O)[C@H](O)CO.CNC[C@H](O)[C@@H](O)[C@H](O)[C@H](O)CO.O=C([O-])CN(CCN(CC(=O)[O-])CC(=O)O)CCN(CC(=O)[O-])CC(=O)O.[Gd+3]` [(meglumine)2[Gd(III)(DPTA)(OH2)], reference compound]: the “relaxivity of water in D2O” value in data set [2] amounted to 3.84 mM⁻¹ s⁻¹.

For the compound `O=C([O-])CN(CCN(CC(=O)[O-])CC(=O)[O-])CCN(CC(=O)[O-])CC(=O)[O-].[Gd+3].[Na+].[Na+]` [Gd-DPTA disodium salt], the water solubility entry in data set [3] was “sparingly water soluble”.

For the compound “Gadolinium complex of 2-aminoacetic acid(N,N):{6-aza-3-oxahexanyl(6,6)}2x^G1: (carboxymethyl)4-cascadane [34-Gd]”, in data set [2], the “relaxivity of water in D2O” value stood at 1.20 mM⁻¹ s⁻¹.
